{"source": "patent US20110059114A1", "about": "“Compositions and Methods for the Treatment of Radioresistant Glioma Stem Cells” (DUKE UNIVERSITY, priority 2009, published 2011)", "key": {"Akt": {"test_system": "Akt", "assay": "Immunoblotting of phospho-Akt (S473)", "format": "cell-based, human", "settings": "2 μM DAPT", "description": "FIG. 5 is a set of immunoblots and a graph illustrating that the Notch pathway regulates radioresistance of glioma stem cells via the Akt pathway and Mcl-1. T4302 CD 133+ cells were infected with control lentivirus or lentivirus directing expression of NICD2. Cells were pre-treated with or without 2 μM DPAT for 4 hours and exposed to 3-Gy radiation. Irradiated cells were collected at 24 or 48 hours after radiation, and sham-irradiated cells were collected at 48 hours after radiation. (A, C, D) Protein levels of phospho-Akt (S473), total Akt, PTEN, Bcl-2, Bcl-xL, Mcl-1, phospho-p53 (S15), total p53 and PUMA were assessed by immunoblotting. Actin was blotted as the loading control. (B) Control cells or NICD2-expressing cells were pre-treated with 10 μM PI3K inhibitor, LY294002, or 50 μM Akt inhibitor III (SH-6), for 4 hours prior to radiation exposure. Relative caspase 3/7 activities were determined at 48 hours after radiation exposure. #: p<0.001, by one-way ANOVA.\nFIG. 13 is an immunoblot illustrating that LY294002 or Akt inhibitor III reduce Akt activity in glioma stem cells. T4302 glioma stem cells were treated with 10 μM LY294002 or 50 μM Akt inhibitor III (SH-6) in the presence or absence of radiation. Cells were collected for immunoblotting at 48 hours after radiation as described in FIG. 5.\nAntibodies, DNA constructs, lentiviruses and other reagents. […]"}, "γ-secretase": {"biological_target": "γ-secretase", "settings": "as suggested by the manufacturer; cited from earlier work"}}, "data": [{"compound": "CC(NC(=O)Cc1cc(F)cc(F)c1)C(=O)NC(C(=O)OC(C)(C)C)c1ccccc1", "note": "[DAPT, N-[N-(3,5-Difluorophenacetyl-L-alanyl)]-S-phenylglycine t-Butyl Ester]", "values": [{"measurement": "Akt activation (phospho-S473 Akt)", "setting": "Akt; 3-Gy radiation, control cells", "value": "reduced Akt activation"}, {"measurement": "Akt activities increased by NICD2 expression", "setting": "Akt; NICD2-expressing cells", "value": "partially attenuated but not abolished"}, {"measurement": "IC50", "setting": "γ-secretase", "value": 200, "unit": "nM"}]}]}
